What is called IC50 is the concentration at which inhibition is half-maximal.

The subject of one experiment is SW620 cells. Put plainly: Cell viability assay, SW620. To be noted: Homo sapiens, SW-620, SW620, 72 hours, Cell Counting Kit-8, read-out: G12V IC50. Type of experiment: cell-based, human. The method in brief:
(§1)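 Cells were plated at 5,000 (NCI-H358) or 2,000 (AGS, SW620) per well and incubated overnight. They were then treated with compound in 0.5% DMSO for 72 h. Viability was read with CCK-8 as OD450 minus OD650 after 2 h, and IC50 came from a 4-parameter sigmoidal fit.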

A further experiment relates to NCI-H358 cells. Put plainly: Cell viability assay, NCI-H358. Type of experiment: cell-based, human. As to conditions: Homo sapiens, NCI-H358, 72 hours, Cell Counting Kit-8, read-out: G12C IC50. The method in brief: as §1
For orientation: Formazan colour is commonly taken as a measure of viable cells.

The subject of another experiment is KRAS G12V in SW620. Put plainly: pERK inhibition assay, SW620. Type of experiment: cell-based, human. As to conditions: Homo sapiens, SW-620, SW620 cells, 4 hours incubation. The method in brief: (§2)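 NCI-H358, AGS and SW620 cells in RPMI-1640/10% FBS were plated overnight, then exposed to compound (0.5% DMSO final) for 4 h. After fixation and permeabilization, phospho-ERK was quantified by in-cell ELISA (HRP secondary, TMB, OD450); IC50 from a 4-parameter sigmoidal fit.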

The target of experiment [1] is KRAS G12V binding to BRAF (Homo sapiens (Human), UniProt P01116+P62937, G12V). Put plainly: KRAS-BRAF with CYPA (50 nM) interaction assay (TR-FRET), G12V. To be noted: GMPPNP loaded 6His-KRAS, GST-BRAF RBD. As for the experimental part: (§3) In this example, TR-FRET was also used to measure the compound or compound-CYPA dependent disruption of the KRAS G12C-BRAF complex. This protocol was also used to measure disruption of KRAS G12D or KRAS G12V binding to BRAF by a compound of the invention, respectively. In assay buffer containing 25 mM HEPES PH=7.4 (4-(2-hydroxyethyl)-1-piperazineethanesulfonic acid, Thermo, 15630080), 0.002% Tween20, 0.1% BSA, 100 mM NaCl, 5 mM MgCl2, 10 μM GMPPNP (Guanosine 5'-[β,γ-imido]triphosphate trisodium salt hydrate, Sigma, G0635), tagless CYPA, GMPPNP loaded 6His-KRAS proteins, and GST-BRAF^RBD were mixed in a well of a 384-well assay plate at final concentrations of 50 nM, 6.25 nM and 1 nM, respectively. Compound was present in plate wells as a 16-point 3-fold dilution series starting at a final concentration of 10 μM and incubated for 3 hours. A mixture of MAb Anti-6His-XL665 (Cisbio, 61HISXLB) and Mab anti-GST-TB cryptate (Cisbio, 61GSTTLB) was then added at a final concentration of 6.67 nM and 0.21 nM, respectively, and the plate was incubated for an additional 1.5 hours. TR-FRET signal was read on a […] microplate reader (Ex320 nm, Em 665/615 nm). Compounds that facilitate disruption of the KRAS-BRAF complex were identified as those eliciting a decrease in the TR-FRET ratio relative to DMSO control wells.

Experiment [2] concerns the target KRAS G12D binding to BRAF (Homo sapiens (Human), UniProt P01116+P62937, G12D). The experiment in a line: KRAS-BRAF with CYPA (50 nM) interaction assay (TR-FRET), G12D. To be noted: GMPPNP loaded 6His-KRAS, GST-BRAF RBD. As for the experimental part: as §3
A general note: In TR-FRET formats the signal depends on donor and acceptor labels being close together.

The subject of experiment [3] is KRAS G12C in NCI-H358 cells. Put plainly: pERK inhibition assay, NCI-H358. Format: cell-based, human. To be noted: Homo sapiens, 4 hours incubation. The method in brief: as §2
A further experiment has as its target KRAS G12C-BRAF complex (Homo sapiens (Human), UniProt P01116+P62937, G12C). The experiment in a line: KRAS-BRAF with CYPA (50 nM) interaction assay (TR-FRET), G12C. Format: binding. As to conditions: GMPPNP loaded 6His-KRAS, GST-BRAF RBD. On the procedure: as §3
In the next experiment the test system is KRAS G12D in AGS cells. Put plainly: pERK inhibition assay, AGS. Format: cell-based, human. As to conditions: Homo sapiens, 4 hours incubation. The method in brief:
as §2

The test system of the next experiment is AGS cells. Put plainly: Cell viability assay, AGS. Format: cell-based, human. As to conditions: Homo sapiens, 72 hours, Cell Counting Kit-8, read-out: G12D IC50. On the procedure: The purpose of this cellular assay was to determine the effects of test compounds on the proliferation of human cancer cell lines NCI-H358 (ATCC-CRL5807) cells, AGS (ATCC-CRL-1739) cells, SW620 (ATCC-CCL-227) over a 3-day treatment period by quantifying the amount of NADPH present at endpoint using Cell Counting Kit-8. Cells were seeded at 5,000 cells/well (NCI-H358), 2,000 cells/well (AGS) 2,000 cells/well (SW620) in 96-well assay plates (Corning-3699) and incubated overnight. On the day of the assay, diluted compounds were then added in a final concentration of 0.5% DMSO. After 72 hours incubation, a tenth of the volume of cell counting kit 8(Dnjindo-CK04) was added into each well. Read the signal (OD450 minus OD650) using EnVision after 2 hours incubation. IC50 was determined by fitting a 4-parameter sigmoidal concentration response model.

Each structure is given as a SMILES string.

Sequence of KRAS G12V binding to BRAF (P01116-2 other isoform, or with tags, fused parts or gaps G12V): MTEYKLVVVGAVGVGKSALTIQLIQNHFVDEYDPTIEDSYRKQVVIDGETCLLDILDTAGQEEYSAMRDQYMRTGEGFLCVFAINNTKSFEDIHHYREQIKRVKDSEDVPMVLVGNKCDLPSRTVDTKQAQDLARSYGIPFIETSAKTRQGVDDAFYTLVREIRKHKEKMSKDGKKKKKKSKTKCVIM
Sequence of KRAS G12V binding to BRAF (P62937 whole entry): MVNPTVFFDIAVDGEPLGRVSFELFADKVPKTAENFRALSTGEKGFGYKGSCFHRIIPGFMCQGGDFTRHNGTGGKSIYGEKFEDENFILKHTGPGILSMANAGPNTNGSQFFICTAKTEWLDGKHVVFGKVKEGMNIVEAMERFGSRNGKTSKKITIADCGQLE
Sequence of KRAS G12D binding to BRAF (P01116-2 other isoform, or with tags, fused parts or gaps G12D): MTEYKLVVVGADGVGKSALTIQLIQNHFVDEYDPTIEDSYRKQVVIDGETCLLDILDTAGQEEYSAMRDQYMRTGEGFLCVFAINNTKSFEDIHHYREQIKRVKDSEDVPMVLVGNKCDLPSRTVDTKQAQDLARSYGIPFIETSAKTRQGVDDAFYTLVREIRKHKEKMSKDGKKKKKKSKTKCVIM
Sequence of KRAS G12D binding to BRAF (P62937 whole entry): as the sequence (P62937 whole entry) above
Sequence of KRAS G12C-BRAF complex (P01116-2 other isoform, or with tags, fused parts or gaps G12C): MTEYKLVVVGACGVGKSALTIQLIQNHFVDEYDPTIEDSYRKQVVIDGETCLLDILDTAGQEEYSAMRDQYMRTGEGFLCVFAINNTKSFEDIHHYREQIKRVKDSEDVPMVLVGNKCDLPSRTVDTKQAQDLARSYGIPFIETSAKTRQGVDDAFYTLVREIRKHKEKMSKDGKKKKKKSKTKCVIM
Sequence of KRAS G12C-BRAF complex (P62937 whole entry): as the sequence (P62937 whole entry) above

As for `CCn1c(-c2cccnc2[C@H](C)OC)c2c3cc(ccc31)-c1cc(O)cc(c1)C[C@H](NC(=O)[C@H](C(C)C)N(C)C(=O)[C@H]1CCN(C(=O)/C=C/n3cncn3)C1)C(=O)N1CCC[C@H](N1)C(=O)OCC(C)(C)C2` (atropisomer, axis not shown; (M)) [Example 9, (3S)-N-[(1S)-1-[[(8S,14S)-22-ethyl-4-hydroxy-(21M)-21-[2-[(1S)-1-methoxyethyl]-3-pyridyl]-18,18-dimethyl-9,15-dioxo-16-oxa-10,22,28-triazapentacyclo[18.5.2.12,6.110,14.023,27]nonacosa-1(26),2,4,6(29),20,23(27),24-heptaen-8-yl]carbamoyl]-2-methyl-propyl]-N-methyl-1-[(E)-3-(1,2,4-triazol-1-yl)prop-2-enoyl]pyrrolidine-3-carboxamide], the IC50 in the experiment on SW620 cells came out at 853 nM; in the experiment on NCI-H358 cells, 29 nM; in the experiment on KRAS G12V in SW620, 742 nM; in experiment [1] it was 103 nM; in [2] it was 1930 nM; in experiment [3], 229 nM. The IC50 at KRAS G12C-BRAF complex is 38 nM.

Consider `CO[C@@H](C)c1ncc(N2CCN(C)CC2)cc1-c1c2c3cc(ccc3n1CC(F)(F)F)-c1csc(n1)C[C@H](NC(=O)[C@H](C(C)C)N(C)C(=O)C1(F)CCN(C(=O)[C@H](F)Cl)CC1)C(=O)N1CCC[C@H](N1)C(=O)OCC(C)(C)C2` (atropisomer, axis not shown; (M)) [Example 20, 1-[(2R)-2-chloro-2-fluoro-acetyl]-4-fluoro-N-[(1S)-1-[[(7S,13S)-(20M)-20-[2-[(1S)-1-methoxyethyl]-5-(4-methylpiperazin-1-yl)-3-pyridyl]-17,17-dimethyl-8,14-dioxo-21-(2,2,2-trifluoroethyl)-15-oxa-4-thia-9,21,27,28-tetrazapentacyclo[17.5.2.12,5.19,13.022,26]octacosa-1(25),2,5(28),19,22(26),23-hexaen-7-yl]carbamoyl]-2-methyl-propyl]-N-methyl-piperidine-4-carboxamide], for which the half-inhibitory concentration (IC50) in the experiment with KRAS G12D in AGS cells worked out at 11 nM; in the experiment on SW620 cells, 5 nM; in the experiment with NCI-H358 cells, 0.2 nM; in the experiment with KRAS G12V in SW620, 3 nM; in [1], 1170 nM; in experiment [2] it was 415 nM. For the same compound, the figures for the IC50 (in experiment [3]; at KRAS G12C-BRAF complex; in the experiment with AGS cells) were 1 nM, 11 nM and 18 nM, respectively.

In the case of `CCn1c(-c2cc(N3CCN(CC(F)(F)F)CC3)cnc2[C@H](C)OC)c2c3cc(ccc31)-c1csc(n1)C[C@H](NC(=O)[C@H](C(C)C)N(C)C(=O)[C@H]1CCN(C(=O)[C@H](F)Cl)C1)C(=O)N1CCC[C@H](N1)C(=O)OCC(C)(C)C2` (atropisomer, axis not shown; (M)) [Example 26, (3S)-1-[(2R)-2-chloro-2-fluoro-acetyl]-N-[(1S)-1-[[(7S,13S)-21-ethyl-(20M)-20-[2-[(1S)-1-methoxyethyl]-5-[4-(2,2,2-trifluoroethyl)piperazin-1-yl]-3-pyridyl]-17,17-dimethyl-8,14-dioxo-15-oxa-4-thia-9,21,27,28-tetrazapentacyclo[17.5.2.12,5.19,13.022,26]octacosa-1(25),2,5(28),19,22(26),23-hexaen-7-yl]carbamoyl]-2-methyl-propyl]-N-methyl-pyrrolidine-3-carboxamide], the half-maximal inhibitory concentration (IC50) in the experiment on KRAS G12D in AGS cells was 35 nM; with SW620 cells it was 45 nM; in the experiment with NCI-H358 cells it was less than 0.6 nM; in the experiment on KRAS G12V in SW620, 13 nM; in [1], 200 nM; in experiment [2] it was 2720 nM. The values for the IC50 (in [3]; at KRAS G12C-BRAF complex; with AGS cells) were 1 nM, 36 nM and 140 nM, respectively.

`CCn1c(-c2cccnc2[C@H](C)OC)c2c3cc(ccc31)-c1cc(O)cc(c1)C[C@H](NC(=O)[C@H](C(C)C)N(C)C(=O)C1CC(C=O)C1)C(=O)N1CCC[C@H](N1)C(=O)OCC(C)(C)C2` (stereo partly drawn) [Example 3, N-[(1S)-1-[[(8S,14S)-22-ethyl-4-hydroxy-(21M)-21-[2-[(1S)-1-methoxyethyl]-3-pyridyl]-18,18-dimethyl-9,15-dioxo-16-oxa-10,22,28-triazapentacyclo[18.5.2.12,6.110,14.023,27]nonacosa-1(26),2,4,6(29),20,23(27),24-heptaen-8-yl]carbamoyl]-2-methyl-propyl]-3-formyl-N-methyl-cyclobutanecarboxamide]: the IC50 in the experiment with KRAS G12D in AGS cells was 683 nM; with SW620 cells, 684 nM; in the experiment on NCI-H358 cells it was 41 nM; with KRAS G12V in SW620, 245 nM; in experiment [1], 110 nM; in experiment [2], 1030 nM. For the same compound, the IC50 in experiment [3] is 9 nM; against KRAS G12C-BRAF complex, 1 nM; with AGS cells it was 1300 nM.

The values are drawn from US20250163072A1, “MACROCYCLIC COMPOUNDS FOR THE TREATMENT OF CANCER” (Hoffmann-La Roche Inc., priority 2021, published 2025).
